Laboratory results: PMC2680961, “Homologous desensitization of signalling by the alpha (α) isoform of the human thromboxane A2 receptor: A specific role for nitric oxide signalling” (Biochimica et Biophysica Acta, 2007)

Key:
[1] = biological target: T1, TPα^Δ336 (Homo sapiens, UniProt P21731); assay: Intracellular calcium mobilization, HEK.TPα^Δ336 cells; assay type: cell-based; details: for Δ[Ca2+]i, U46619-induced: HEK.TPα^Δ336
T1 construct: expressed in transfected cells
T1 sequence (P21731 1-335): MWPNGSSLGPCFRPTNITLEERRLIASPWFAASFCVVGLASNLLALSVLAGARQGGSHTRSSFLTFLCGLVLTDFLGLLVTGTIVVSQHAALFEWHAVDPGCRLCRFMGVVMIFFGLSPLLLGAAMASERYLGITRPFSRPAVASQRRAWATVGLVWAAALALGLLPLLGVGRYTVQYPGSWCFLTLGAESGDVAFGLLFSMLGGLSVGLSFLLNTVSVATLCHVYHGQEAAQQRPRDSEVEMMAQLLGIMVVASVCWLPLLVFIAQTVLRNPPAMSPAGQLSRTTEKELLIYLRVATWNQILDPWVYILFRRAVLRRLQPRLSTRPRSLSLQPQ
Description: Measurement of intracellular calcium mobilization ([Ca^2+]i) in FURA2/AM preloaded HEK 293 cell lines (2 × 10^6 cells/dish), each transiently co-transfected with pADVA (10 μg), and pCMV:Gαq (25 μg), was carried out as previously described. To investigate the effect of GRK2/βARK1 on TP-mediated [Ca^2+]i mobilization, HEK.TPα or HEK.TPβ cells (2 × 10^6 cells/dish) were co-transfected with pADVA (10 μg), pCMV:Gαq (25 μg) along with pRK5:βARK1^495–689 (25 μg), encoding a dominant negative form of GRK2/βARK1[39]. Approximately 48 h post-transfection, cells were harvested by scraping, washed twice in ice-cold PBS and resuspended in HBSSHB (modified Ca^2+/Mg^2+-free Hank's buffered salt solution, containing […], pH 7.67, 0.1% bovine serum albumin (BSA)) buffer at 10^7 cells/ml and incubated in the dark with 5 μM FURA2/AM for 45 min at 37 °C. […] For each measurement of [Ca^2+]i mobilization, aliquots of cells were diluted to 0.825 × 10^6 cells/ml in HBSSHB, 1 mM CaCl2 and FURA2 fluorescence was recorded (2 ml aliquots of cells) at 37^ °C with gentle stirring with a Perkin Elmer-Cetus LS50-B spectrofluorometer at excitation wavelengths of 340 nm and 380 nm and emission wavelength of 510 nm, respectively.
Cells were stimulated with the TP agonist U46619 (1 μM) and changes in [Ca^2+]i mobilization were monitored as a function of time. To assess agonist-mediated homologous desensitization, cells (0.825 × 10^6 cells/ml; 2 ml per assay) were stimulated with 1 μM U46619 (Primary stimulation) or, as a control, with the vehicle for 4 min; thereafter, cells were collected by centrifugation (900×g, 5 min); were washed twice in 2 ml HBSSHB, 1 mM CaCl2; and finally resuspended in 2 ml HBSSHB,1 mM CaCl2 and were left to recover over various time intervals (ranging from 0 to 60 min); thereafter, cells re-stimulated with 1 μM U46619 (Secondary stimulation) and changes in [Ca^2+]i mobilization were monitored as a function of time. […]

[2] = system: eNOS; assay: eNOS phosphorylation (anti-phospho eNOS^Ser1177 western blot); assay type: cell-based, human; details: HEK.TPα cells (also HEK 293, HEK.TPβ); 1 μM U46619 or 10 U/ml Thrombin, 5 min, 37 °C
Description: In order to assess eNOS phosphorylation, HEK.TPα, HEK.TPβ or HEK 293 cells (2 × 10^6 cells/10-cm dish) were plated some 48 h prior to experimentation. Cells were incubated with vehicle, 1 μM U46619 or 10 U/ml Thrombin for 5 min at 37 °C and aliquots of whole cell protein (100 μg/lane) were analysed by SDS-PAGE/western blot. Blots were initially screened using the anti-phospho eNOS^1177 as per supplier's instructions (Cell Signalling Technology) and, following stripping, were subsequently re-screened using the anti-eNOS (Transduction Laboratories).

[3] = biological target: T2, TPα^S331,T337,S340A (Homo sapiens, UniProt P21731, S331A/S340A/T337A); assay: [3H]SQ29,548 radioligand binding, Scatchard analysis, HEK.TPα^S331,T337,S340A
T2 construct: expressed in transfected cells
T2 sequence (P21731 1-343 S331A/T337A/S340A): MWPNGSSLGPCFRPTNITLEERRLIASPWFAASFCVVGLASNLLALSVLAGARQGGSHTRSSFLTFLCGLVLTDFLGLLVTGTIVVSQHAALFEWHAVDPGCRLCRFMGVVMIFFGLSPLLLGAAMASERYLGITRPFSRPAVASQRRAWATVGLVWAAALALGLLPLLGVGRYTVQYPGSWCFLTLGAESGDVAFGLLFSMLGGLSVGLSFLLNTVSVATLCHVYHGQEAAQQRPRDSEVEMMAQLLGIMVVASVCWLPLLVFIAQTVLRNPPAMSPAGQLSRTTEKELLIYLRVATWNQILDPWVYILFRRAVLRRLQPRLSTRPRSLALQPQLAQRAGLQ
Description: Cells were harvested by centrifugation at 500×g at 4 °C for 5 min and washed three times with ice-cold Ca^2+/Mg^2+-free phosphate-buffered saline (PBS). TP radioligand binding assays were carried out at 30 °C for 30 min in 100 μl reactions in the presence of 0–40 nM [^3H] […] Protein determinations were carried out using the Bradford assay.
Radioligand binding and Scatchard analysis data were analysed using GraphPad Prisim V4.0 programme (GraphPad Software Inc., San Diego CA, USA). Statistical analyses were carried out using the unpaired Student's t test using the Statworks Analysis Package. p-values ≤ 0.01 indicated statistically significant differences.

Row | Compound | Δ[Ca2+]i, U46619-induced ([1]; primary 1 μM U46619 4 min) | Δ[Ca2+]i, U46619-induced ([1]; secondary 1 μM U46619 at 15 min) | secondary U46619 [Ca2+]i response relative to primary response ([1]; TPα^Δ336) | eNOS phosphorylation at Ser^1177 [2] | Bmax (pmol/mg protein ± S.E.M.) [3]
1 | CCCCC[C@H](O)/C=C/[C@@H]1[C@@H](C/C=C\CCCC(=O)O)[C@H]2CO[C@@H]1C2 [U46619] | 240 ± 14 nM | 50 ± 3.4 nM | 20% | rapid phosphorylation-dependent activation of eNOS | 
2 | O=C(O)CCC/C=C\C[C@@H]1[C@H](CNNC(=O)Nc2ccccc2)[C@H]2CC[C@@H]1O2 [SQ29,548] |  |  |  |  | 4.01 ± 0.05 pmol/mg protein
